Structures can show the parent of a compound that is named as a salt.
Legend:
[1] = test system: CD rats; test: 14-consecutive day nose-only inhalation toxicity and recovery; type: in vivo, rat
Description: The solution was used to generate aerosolized vancomycin for all vancomycin exposure groups.
Nose-only exposures were conducted in a “flow-past” cylindrical inhalation chamber placed inside a steel-framed Plexiglas secondary containment box. The chamber contained 48 animal ports, each compatible with a single nose-only exposure tube, aerosol concentration sampling device (e.g., filter), or oxygen monitor.
The total air flow through the exposure system was balanced to achieve individual animal port flows of ˜500 mL/min (port flow approximated based on total chamber flow). Measured flows included sample flow rate, nebulizer flow rate, dilution flow rate (chamber make-up air), and chamber exhaust flow.
Vancomycin solution was aerosolized with two Aerotech II nebulizers operated at 20 psi driving pressure. The target aerosol Vancomycin concentration for all exposure levels was ˜1.0 mg/L.
Aerosolized vancomycin was administered to 3 groups of male and female CD rats (available from Charles River Laboratories, Kingston, N.Y.) for durations of 30 min (Low), 90 min (Mid), and 180 min (High). A control group was exposed for 180 min to aerosols generated from a normal saline solution. Groups of rats from the Control and High level 14-day exposures were also studied following a 14-day recovery period. Endpoints included clinical observations, body weights, clinical pathology (hematology, clinical chemistry), urinalyses, organ weights, and histopathology.

[2] = Aerosol particle size distribution by laser diffraction; type: physicochemical; details: solutions in WFI 60-140 mg/ml, fill 2-4 ml
Description: Droplet size distributions for aerosolized drug and placebo solutions were measured using the Sympatec HELOS laser diffraction spectrometer. In preparation for a run, the nebulizer was connected to the compressed air line, the flow turned on and the pressure regulator set to a driving pressure to generate a flow rate of 8 LPM through the nebulizer. The flow was then turned off by closing the flow shut-off valve. Next, the nebulizer was connected to a “T” piece with one port plugged, and the other port coupled to a mouthpiece. The nebulizer was then filled with drug solution, and mounted so that nebulizer mouthpiece was aligned parallel to the nozzle of the Rodos dry powder disperser apparatus already installed in the spectrometer. The laser diffraction system was setup to automatically trigger when it sensed the presence of the aerosol generated by the nebulizer. Measurements were initiated by opening the shut-off valve to pressurize the nebulizer and generate the aerosol. A total of 6 particle size distribution scans were taken for each nebulizer run, and then averaged to provide representative size distribution results.

[3] = test system: beagle dogs; test: 14-consecutive day face mask inhalation toxicity and recovery; type: in vivo, dog
Description: Within 2 hours prior to usage, a vancomycin nebulizer solution having a concentration of 120 mg/ml was formed by dissolving vancomycin hydrochloride (available from Alpharma, Copenhagen, Denmark) in sterile water for injection USP (available from B. Braun Medical Inc., Bethlehem, Pa.). The solution was used to generate aerosolized vancomycin for all vancomycin exposure groups.
The exposure system consisted of a single, cylindrical, plexiglass inhalation chamber (volume of ˜23.7 L, 14.61-cm radius, 35.56-cm height). The chamber was supplied with two Aerotech II nebulizers operated at ˜40 psi. Nebulized test article and nebulizer air supply was diluted with ˜10 L/min HEPA-filtered dilution air. The flow through the system was ˜36 L/min.
The aerosolized vancomycin was administered via a face mask to 3 groups of male and female beagle dogs for durations of 15 min (Low), 30 min (Mid), and 60 min (High). A control group was exposed for 60 min to aerosols generated from normal saline solution, i.e., 0.9% sodium chloride injection USP (available from B. Braun Medical Inc.).
Groups of dogs from the Control and High level 14-day exposures were also studied following a 14-day recovery period. Endpoints for all groups of dogs included physical examinations, clinical observations, body weights, ophthalmology, cardiovascular EKG, clinical pathology (hematology, clinical chemistry), urinalyses, organ weights, histopathology, and toxicokinetics.

CN[C@H](CC(C)C)C(=O)N[C@H]1C(=O)N[C@@H](CC(N)=O)C(=O)N[C@H]2C(=O)N[C@H]3C(=O)N[C@H](C(=O)N[C@H](C(=O)O)c4cc(O)cc(O)c4-c4cc3ccc4O)[C@H](O)c3ccc(c(Cl)c3)Oc3cc2cc(c3O[C@@H]2O[C@H](CO)[C@@H](O)[C@H](O)[C@H]2O[C@H]2C[C@](C)(N)[C@H](O)[C@H](C)O2)Oc2ccc(cc2Cl)[C@H]1O [Vancomycin HCl, vancomycin hydrochloride]
mass median aerodynamic diameter of exposure aerosol ([1]; 120 mg/ml solution, Aerotech II nebulizers, 20 psi): 2.0-2.6 μm | no observed effect level ([1]; rat, 14-day inhalation): not established | serum indicators of kidney function or urinalysis ([1]; rat, 14-day inhalation): No vancomycin related changes | lung weight increase ([1]; rat, High exposure level (180 min), 14 days): ~19 % of control | histopathologic findings after recovery ([1]; rat, High level, 14 days of recovery): substantial diminution of these findings | lung weight increase ([1]; rat, Low exposure level (30 min), 14 days): approximately 8 % of control | neutrophils (hematology) ([1]; rat, Mid and High exposure levels): statistically significant increase | lung weight increase ([1]; rat, Mid exposure level (90 min), 14 days): ~20 % of control | exposure related histopathologic findings ([1]; rat, end of 14-day exposure): limited to the respiratory tract | tolerability ([1]; rat, inhalation 30, 90, 180 min/day, 14 days): well-tolerated by all groups of rats | body weight ([1]; rat, inhalation 14 days): no vancomycin treatment related effects | clinical observations ([1]; rat, inhalation 14 days): no vancomycin related effects | survival ([1]; rat, inhalation 14 days, all groups): All rats survived to scheduled necropsy | volume weighted median size of aerosol [2]: 2-3 μm | mass median aerodynamic diameter of exposure aerosol ([3]; 120 mg/ml solution, Aerotech II nebulizers, ~40 psi): 1.9-2.6 μm | physical examinations, clinical observations, ophthalmology, ECG, hematology, clinical chemistry, urinalyses, gross necropsy, organ weights ([3]; dog, 14-day inhalation): no vancomycin related effects | survival ([3]; dog, 14 days, all groups): All dogs survived to scheduled necropsy | recovery of histopathological effects ([3]; dog, High level, 14-day recovery): complete after 14 days | histopathology ([3]; dog, end of 14-day exposure): limited to microscopic findings in the lung | tolerability ([3]; dog, face mask 15, 30, 60 min/day, 14 days): well-tolerated by all groups of dogs
